This note sets out measurements from the METLIN SMRT retention time set (Domingo-Almenara et al. 2019).

The series can be described thus: gradient 5% acetonitrile 3 min, to 50% in 2 min, to 85% in 15 min, held 3 min, 100 µL/min. Conditions: column: Zorbax Extend-C18 2.1 x 50 mm; eluents: water / acetonitrile, 0.1% formic acid. A digest of the protocol:
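Values are retention times taken from adduct peaks that software picked and an analyst inspected. The pure standards were run as mixtures of ~100 molecules on HPLC linked to a quadrupole time-of-flight mass spectrometer, in positive and negative ionization mode. A Zorbax Extend-C18 column (2.1 × 50 mm, 1.8 μm) was used at 100 μL/min with water and acetonitrile, each including 0.1% formic acid.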
`CCN(CC)S(=O)(=O)c1ccc2c(c1)cc(C(=O)NCCc1c[nH]c3ccc(Cl)cc13)n2C` gave an RP-LC retention time of 1060 s. Consider `Cc1ccc(S(=O)(=O)N2C[C@@H]3C[C@H](NC(=O)c4cccs4)[C@H]2C3)cc1Cl`, for which the RP-LC retention time amounted to 992 s. The compound `Cc1nccn1-c1cc(N2CCC3(CC2)OCCO3)nc2ccnn12` gave an RP-LC retention time of 577 s. `O=C(NCc1ccco1)c1c(O)c2sccc2[nH]c1=O`: the RP-LC retention time is 787 s.

The compound `O=C(Cn1nc2c(N3CCCCCC3)nccn2c1=O)NCc1cc(F)cc(F)c1` showed an RP-LC retention time of 744 s.

The compound `CCNC(=O)c1nnc(-c2ccc(S(=O)(=O)N3CCCC3)cc2)o1` had an RP-LC retention time of 753 s.

Consider `Cc1cccc2c1NC(=O)C2(O)CC(=O)c1ccccc1Cl` (centres undefined), for which the RP-LC retention time is 729 s.

In the case of `CCCN1CCN(C(=O)CN2C(=O)CCCc3cc(S(=O)(=O)N4CCOCC4)ccc32)CC1`, the RP-LC retention time is 590 s.

The compound `Cc1ccc(NC(=O)N2CCC(n3c(-c4ccoc4)nc4cccnc43)C2)cc1C` (centres undefined) returned an RP-LC retention time of 762 s. The compound `COc1ccc(-c2csc(NC(=O)CSc3nc(C)cc(C)n3)n2)cc1` yielded an RP-LC retention time of 979 s. In the case of `Cc1cc(C)cc(N2CCC(NC(=O)c3ccc(C#N)cc3)C2=O)c1` (centres undefined), the RP-LC retention time stood at 854 s. With `CCn1ccc2sc(C)c(C(=O)NCc3cccc(Br)c3)c2c1=O`, the RP-LC retention time is 918 s. Regarding `O=C(Nc1ccc(OCc2nnc(-c3ccc(Cl)cc3)o2)cc1)c1ccccn1`, the RP-LC retention time is 990 s. Take `Cc1ccc2c(NCc3ccc4c(c3)OCO4)c(C(=O)OC(C)C)cnc2n1`: the RP-LC retention time turned out to be 737 s.

In turn, `O=C(Cc1csc(NC(=O)c2ccsc2)n1)NCCOc1ccc(F)cc1` yielded an RP-LC retention time of 747 s. For the compound `Cc1ccc(CNC(=O)C2CCCN(C(=O)c3[nH]c(C)c(C(=O)OC(C)C)c3C)C2)cc1` (centres undefined), the RP-LC retention time is 893 s.

The compound `O=C(Cc1csc2nc(-c3cccc(Br)c3)cn12)NC1CCCCC1` registered an RP-LC retention time of 952 s. In turn, `CCOCCCNC(=O)C1CCCN(S(=O)(=O)c2ccc3c(ccn3C)c2)C1` (centres undefined) registered an RP-LC retention time of 788 s. As for `CC1CCCN(C(=O)c2ccc3ncnc(N4CCCC4)c3c2)C1` (centres undefined), the RP-LC retention time is 640 s. The value for `Cc1scc2nc(C(=O)NC3CCCCC3)nc(N(C)C)c12` was 652 s.

Compound `CCCNC(=O)C1CCCN(c2ccc(SCC(=O)Nc3cc(OC)cc(OC)c3)nn2)C1` (centres undefined) came in with an RP-LC retention time of 673 s. As to `Cc1noc(COC2CCCN(C(=O)NCc3ccccc3)C2)n1` (centres undefined), the RP-LC retention time was found to be 684 s.

In turn, `CCc1nc2cc(-c3noc(-c4cnccn4)n3)ccc2o1` had an RP-LC retention time of 830 s. Take `CCS(=O)(=O)Nc1ccc(-c2noc(CNC(=O)c3ccccc3)n2)cc1`: the RP-LC retention time came to 744 s. Compound `CC(C)CC(=O)Nc1n[nH]c2c1CN(C(=O)C1CCN(C)CC1)C2(C)C` gave an RP-LC retention time of 605 s. `CC(=O)CC(=O)Nc1ccc2ccccc2c1` yielded an RP-LC retention time of 800 s. In turn, `CCC(Oc1ccc(=O)n(-c2ccc(F)cc2)n1)C(=O)NCCC(C)C` (centres undefined) returned an RP-LC retention time of 804 s. With `COC(=O)c1ccc(CN2CCN(c3cnn4c(C5CC5)nnc4c3)CC2)cc1`, the RP-LC retention time turned out to be 571 s. As for `Cc1oc(-c2ccc(C(=O)NCCN(C)C)cc2)nc1CS(=O)c1ccccc1` (centres undefined), the RP-LC retention time turned out to be 590 s. `CN1CCn2cc(S(=O)(=O)NCc3cc(F)cc(F)c3)cc2C1=O` displayed an RP-LC retention time of 691 s. In turn, `Clc1cccc(-c2noc3ncnc(N4CCN(c5ccccn5)CC4)c23)c1` returned an RP-LC retention time of 716 s. Regarding `COc1cccc(N2C(=O)c3ccccc3C2C(=O)NC2CCCC2)c1` (centres undefined), the RP-LC retention time stood at 775 s. In turn, `CCNC(=O)N1CCCC(c2cccc(C(=O)NC3CCCCC3)c2)C1` (centres undefined) registered an RP-LC retention time of 817 s. The compound `Cc1nc2c(sc3nc(-c4ccccc4)ccc32)c(=O)n1CC(=O)Nc1ccccc1C(F)(F)F` came in with an RP-LC retention time of 1070 s. `CC(C)CC(=O)N1CCN(c2ccc(=O)n(-c3ccc(C(C)C)cc3)n2)CC1`: the RP-LC retention time worked out at 902 s.

`O=C(NC1CCCCCCC1)C1CCCN(S(=O)(=O)c2c[nH]c(C(=O)N3CCCC3)c2)C1` (centres undefined) gave an RP-LC retention time of 854 s.

As for `COc1cccc(-c2nc(C3CCN(S(=O)(=O)c4cc(C)ccc4C)CC3)no2)c1`, the RP-LC retention time turned out to be 1210 s.

For `CN(C)CC[C@@H](c1ccc(Br)cc1)c1ccccn1`, the RP-LC retention time stood at 682 s. `Cc1cnc(-c2ccccc2)n1C1CN(Cc2ccc(F)cc2F)C1` yielded an RP-LC retention time of 572 s.

`Cc1cc(C)cc(N2CCC(NC(=O)Nc3ccc(C)cc3C)C2=O)c1` (centres undefined): the RP-LC retention time stood at 938 s. For `C#CCOCC1CCCN(S(=O)(=O)c2cc(F)ccc2OC)C1` (centres undefined), the RP-LC retention time is 871 s.

On to `Cc1cc(CN2CCC(CNC(=O)CSc3ccc(F)cc3)CC2)c(C)o1`, for which the RP-LC retention time amounted to 583 s. `Cc1ccc(NS(=O)(=O)c2cc3n(c2)CCN(C(C)C)C3=O)c(C)c1` returned an RP-LC retention time of 800 s. `CNC(=O)c1cc(COc2ccc(NC(=O)c3ccc(Br)cc3)cc2)on1` registered an RP-LC retention time of 830 s.

In turn, `CCOC(=O)C1CCN(C(=O)c2ccc3c(c2)N(CC(=O)N2CCCC2)C(=O)CO3)CC1` had an RP-LC retention time of 678 s. For `COc1ccc(NC(=O)Cn2ccc3ccc(-c4nnc(C)o4)cc32)cc1Cl`, the RP-LC retention time was 811 s.

For `CCC(=O)N1CCN(c2ccc(-n3c(=O)ccc4cnc5ccc(-c6cnc7ccccc7c6)cc5c43)cc2C(F)(F)F)CC1`, the RP-LC retention time was 861 s. `COc1ccc(C(=O)Nc2nc(-c3ccc4c(c3)N(C)C(=O)C(C)O4)cs2)cc1` (centres undefined): the RP-LC retention time came out at 984 s. Compound `O=C(CSc1ccc(F)cc1)Nc1ccc2c(c1)N(C(=O)c1ccccc1)CCC2` showed an RP-LC retention time of 874 s. The compound `Cc1ccc(CNC(=O)c2cc(NC(=O)C(C)C)cc3nc(C)ccc23)cc1` came in with an RP-LC retention time of 680 s. Under `Cc1cccc(-n2c(=O)c3c(cc(C)n3C)n(CC(=O)Nc3cccc(Br)c3)c2=O)c1` stands 962 s; under `Cc1ccc2c(c1)C(O)(CC(=O)c1cccc(Cl)c1)C(=O)N2` (centres undefined), 785 s; under `Cc1nc(OCC(=O)Nc2ccc(Cl)cc2F)c2ccccc2n1`, 789 s. The value for `COC1CN(c2cccc(F)c2)C12CCN(Cc1cccc(F)c1)CC2` (centres undefined) was 761 s; that for `CCCC(NC(=O)c1ccc(OC)c(OC)c1)C(=O)Nc1nc2ccccc2[nH]1` (centres undefined) was 650 s; that for `CC(C)(C)NC(=O)Cn1ccn2nc(-c3ccccc3)c(CO)c2c1=O` was 721 s. With `CCN(c1ccccc1)S(=O)(=O)c1cc(-c2[nH]ncc2C(=O)N2CCCC2)oc1C`, the RP-LC retention time is 781 s.

Regarding `CCc1nncn1C1CCN(S(=O)(=O)c2cc(C)ccc2C)CC1`, the RP-LC retention time came to 752 s.

With `O=C(NCCc1cccs1)c1cc2n(n1)CCCN(Cc1cccc(F)c1)C2=O`, the RP-LC retention time turned out to be 843 s.

For `CCCc1nnc(SCC(=O)NC2CCCCCC2)n1-n1cccc1`, the RP-LC retention time was determined as 831 s.

On to `Cc1oc2ncnc(N3CCCC(C(=O)N4CCC(C(N)=O)CC4)C3)c2c1C` (centres undefined), for which the RP-LC retention time turned out to be 620 s. Consider `COc1ccccc1-c1nc2nccc(-c3cc4ccccc4o3)n2n1`, for which the RP-LC retention time amounted to 1010 s.

`CCc1ccccc1N(C(=O)C1CCCCC1)C1C=CS(=O)(=O)C1` (centres undefined) displayed an RP-LC retention time of 894 s. For the compound `Cc1ncsc1CN1CCc2nn(Cc3ccccc3)c(=O)n2CC1`, the RP-LC retention time is 604 s. `Cc1cccc(-c2nnc(C)c(N3CCCCC3C)n2)c1` (centres undefined): the RP-LC retention time worked out at 765 s. The value for `COc1ccc(C(=O)N2CCN(c3cc(C(C)C)n4cnnc4n3)CC2)c(OC)c1` was 609 s; that for `CCn1c(=O)sc2cc(S(=O)(=O)N3CCC(C(=O)N4CCC(C)CC4)CC3)ccc21` was 900 s; that for `CCC(C)NC(=O)N1CCCN(C2=NS(=O)(=O)C(c3ccc(C)c(C)c3)=C2C)CC1` (centres undefined) was 843 s. The compound `CCn1ccc(C(=O)NC2CCN(C3=NS(=O)(=O)C(c4ccc(F)cc4)=C3C)CC2)n1` displayed an RP-LC retention time of 777 s.

With `O=C(C1Sc2ccccc2N(CC(=O)N2CCc3ccccc32)C1=O)N1CCCCCC1` (centres undefined), the RP-LC retention time was determined as 987 s. `O=C(NCc1csc(C2CCCN(C(=O)c3cc(F)cc(F)c3)C2)n1)C1CCC1` (centres undefined) registered an RP-LC retention time of 771 s. Take `COc1ccc(CC(=O)N2CCCC2c2nc(-c3ccc(OC)c(OC)c3)no2)cc1OC` (centres undefined): the RP-LC retention time was 801 s. Take `CCn1cc(S(=O)(=O)Nc2ccc(OC)cc2)c2cccnc21`: the RP-LC retention time came to 786 s. Compound `CC(C)Cn1c(CCNC(=O)c2cccc(F)c2)nc2cccnc21` yielded an RP-LC retention time of 709 s. Turning to `CCOC(=O)c1noc2nc(C)nc(NCCCN3CCN(c4cccc(C)c4)C(C)C3)c12` (centres undefined), the RP-LC retention time was 739 s. The value for `Cc1nnc(-c2ccc(=O)n(CC(=O)NCc3ccc(F)c(Cl)c3)c2)o1` was 672 s; that for `COc1ccc(Cl)cc1NC(=O)C1CCCN(c2nc3ccccc3nc2C(F)(F)F)C1` (centres undefined) was 693 s. `Cc1cccc(-c2noc(CN3C(=O)C(C)Oc4ccccc43)n2)c1` (centres undefined) showed an RP-LC retention time of 1110 s. In the case of `CSCC[C@H](NC(=O)COc1cc(C)cc2oc(=O)c3c(c12)CCC3)C(=O)O`, the RP-LC retention time is 769 s.
